# Reference: patent US20020147230A1, “Aminal Diones as potassium channel openers” (priority 2001, published 2002)
# Columns and labels:
# [1] = system: tissue strips obtained from Landrace pig bladders; test: Functional potassium channel opening activity in isolated bladder strips (field-stimulated twitch); conditions: for EC50 / Emax: Sus scrofa; for EC50: amount causing 50% of the agent's maximal response, read-out: ED50 (the source's name); for Emax: maximal efficacy relative to P1075, field stimulation 0.05 Hz
# Protocol: Compounds were evaluated for functional potassium channel opening activity using tissue strips obtained from Landrace pig bladders.
# Landrace pig bladders were obtained from female Landrace pigs of 930 kg. Landrace pigs were euthanized with an intraperitoneal injection of pentobarbital solution, Somlethal®, J. A. Webster Inc., Sterling Mass. The entire bladder was removed and immediately placed into Krebs Ringer bicarbonate solution (composition, mM: NaCl, 120; NaHCO3, 20; dextrose, 11; KCl, 4.7; CaCl2, 2.5; MgSO4, 1.5; KH2PO4, 1.2; K2EDTA, 0.01, equilibrated with 5% CO2/95% O2pH 7.4 at 37° C.). Propranolol (0.004 mM) was included in all of the assays to block β-adrenoceptors. The trigonal and dome portions were discarded. Strips 3-5 mm wide and 20 mm long were prepared from the remaining tissue cut in a circular fashion. The mucosal layer was removed. One end was fixed to a stationary glass rod and the other to a Grass FT03 transducer at a basal preload of 1.0 gram. Two parallel platinum electrodes were included in the stationary glass rod to provide field stimulation of 0.05 Hz, 0.5 milli-seconds at 20 volts. This low frequency stimulation produced a stable twitch response of 100-500 centigrams. Tissues were allowed to equilibrate for at least 60 minutes and primed with 80 mM KCl. A control concentration response curve (cumulative) was generated for each tissue using the potassium channel opener P1075 as the control agonist. […] After a 60 minute rinsing period, a concentration response curve (cumulative) was generated for the test agonist in the same fashion as that used for the control agonist P1075. The maximal efficacy of each compound (expressed as % relative to P1075) is reported. The amount of agent necessary to cause 50% of the agent's maximal response (ED50) was calculated using “ALLFIT” (DeLean et al., Am. J. Physiol., 235, E97 (1980)), hereby incorporated by reference. Agonist potencies were also expressed as an index relative to P1075. The index was calculated by dividing the ED50 for P1075 by the ED50 for the test agonist in a given tissue. Each tissue was used for only one test agonist, and the indices obtained from each tissue were averaged to provide an average index of potency.
# [2] = system: primary cultured guinea-pig urinary bladder (GPB) cells; test: Membrane hyperpolarization (MHP) assay, DiBAC(4)3 / FLIPR; format: cell-based; conditions: Cavia porcellus; membrane hyperpolarization in guinea-pig bladder cells
# Protocol: Compounds were evaluated for potassium channel opening activity using primary cultured guinea-pig urinary bladder (GPB) cells.
# For the preparation of urinary bladder smooth muscle cells, urinary bladders were removed from male guinea-pigs (Hartley, Charles River, Wilmington, Mass.) weighing 300-400 g and placed in ice-cold Ca^2+-free Krebs solution (composition, mM: KCl, 2.7; KH2PO4, 1.5; NaCl, 75; Na2HPO4, 9.6; Na2HPO4.7H2O, 8; MgSO4, 2; glucose, 5; HEPES, 10; pH 7.4). Cells were isolated by enzymatic dissociation as previously described with minor modifications (Klockner and Isenberg, Pflugers Arch. (1985), 405, 329-339), hereby incorporated by reference. The bladder was cut into small sections and incubated in 5 mL of the Kreb's solution containing 1 mg/mL collagenase (Sigma, St. Louis, Mont.) and 0.2 mg/mL pronase (Calbiochem, La Jolla, Calif.) with continuous stirring in a cell incubator for 30 minutes. The mixture was then centrifuged at 1300× g for 5 minutes, and the pellet resuspended in Dulbecco's PBS (GIBCO, Gaithersburg, Md.) and recentrifuged to remove residual enzyme. The cell pellet was resuspended in 5 mL growth media (composition: Dulbecco's modified Eagle's medium supplemented with 10% fetal bovine serum, 100 units/mL penicillin, 100 units/mL streptomycin and […] amphotericin B) and further dissociated by pipetting the suspension through a flame-polished Pasteur pipette and passing it through a polypropylene mesh membrane (Spectrum, Houston, Tex.). The cell density was adjusted to 100,000 cells/mL by resuspension in growth media. Cells were plated in clear-bottomed black 96-well plates (Packard) for membrane potential studies at a density of 20,000 cells/well and maintained in a cell incubator with 90% air:10% CO2 until confluent. Cells were confirmed to be of smooth muscle type by cytoskeletal staining using a monoclonal mouse anti human-α-smooth muscle actin (Biomeda, Foster City, Calif.).
# Functional activity at potassium channels was measured by evaluating changes in membrane potential using the bis-oxonol dye DiBAC(4)3 (Molecular Probes) in a 96-well cell-based kinetic assay system, Fluorescent Imaging Plate Reader (FLIPR) (K. S. Schroeder et al., J. Biomed. Screen., v. 1 pp. 7581 (1996)), hereby incorporated by reference. DiBAC(4)3 is an anionic potentiometric probe which partitions between cells and extracellular solution in a membrane potential-dependent manner. With increasing membrane potential (for example, K^+ depolarization), the probe further partitions into the cell; this is measured as an increase in fluorescence due to dye interaction with intracellular lipids and proteins. Conversely, decreasing membrane potential (hyperpolarization by potassium channel openers) evokes a decrease in fluorescence.
# Confluent guinea-pig urinary bladder cells cultured in black clear-bottomed 96-well plates were rinsed twice with […] assay buffer (composition, mM: HEPES, 20; NaCl, 120; KCl, 2; CaCl2, 2; MgCl2, 1; glucose, 5; pH 7.4 at 25° C.) containing 5 μM DiBAC(4)3 and incubated with […] of the buffer in a cell incubator for 30 minutes at 37° C. to ensure dye distribution across the membrane. After recording the baseline fluorescence for 5 minutes, the reference or test compounds, prepared at 10 times the concentration in the assay buffer, were added directly to the wells. Changes in fluorescence were monitored for an additional 25 minutes. Hyperpolarization responses were corrected for any background noise and were normalized to the response observed with 10 μM of the reference compound P1075 (assigned as 100%), a potent opener of smooth muscle KATP channels (Quast et al., Mol. Pharmacol., v. 43 pp. 474-481 (1993)).
# Routinely, five concentrations of P1075 or test compounds (log or half-log dilutions) were evaluated and the maximal steady-state hyperpolarization values (expressed as % relative to P1075) plotted as a function of concentration. […]
EC50 ([1]; Landrace pig bladder strips),EC50 [2],SMILES,Emax ([1]; Landrace pig bladder strips),"Index ([1]; ED50 for P1075 divided by ED50 for the test agonist in a given tissue, averaged)","effect on stimulated twitch / stimulated contractions of the bladder ([1]; Landrace pig bladder strips, P1075 over 10^−9 to 10^−5 M)"
19000 nM,150 nM,"Cc1ccc(C(=O)NC(Nc2c(Nc3cccnc3)c(=O)c2=O)C(C)(C)C)cc1 (centres unmarked) [Example 1, N-(1-{[3,4-dioxo-2-(3-pyridinylamino)-1-cyclobuten-1-yl]amino}-2,2-dimethylpropyl)-4-methylbenzamide]",54%,,
6900 nM,160 nM,"CC(C)(C)C(NC(=O)c1ccc(Cl)cc1)Nc1c(Nc2cccnc2)c(=O)c1=O (centres unmarked) [Example 2, 4-chloro-N-(1-{[3,4-dioxo-2-(3-pyridinylamino)-1-cyclobuten-1-yl]amino}-2,2-dimethylpropyl)benzamide]",79%,,
2200 nM,,"CC(C)(C)C(NC(=O)c1ccc(I)cc1)Nc1c(Nc2cccnc2)c(=O)c1=O (centres unmarked) [Example 3, N-(1-{[3,4-dioxo-2-(3-pyridinylamino)-1-cyclobuten-1-yl]amino}-2,2-dimethylpropyl)-4-iodobenzamide]",73%,,
380 nM,,"CC(C)(C)C(NC(=O)c1cccc(Cl)c1)Nc1c(Nc2cccnc2)c(=O)c1=O (centres unmarked) [Example 5, 3-chloro-N-(1-{[3,4-dioxo-2-(3-pyridinylamino)-1-cyclobuten-1-yl]amino}-2,2-dimethylpropyl)benzamide]",98%,,
1000 nM,,"Cc1cccc(C(=O)NC(Nc2c(Nc3cccnc3)c(=O)c2=O)C(C)(C)C)c1 (centres unmarked) [Example 6, N-(1-{[3,4-dioxo-2-(3-pyridinylamino)-1-cyclobuten-1-yl]amino}-2,2-dimethylpropyl)-3-methylbenzamide]",100%,,
8400 nM,,"CC(C)(C)C(NC(=O)c1cccc(F)c1)Nc1c(Nc2cccnc2)c(=O)c1=O (centres unmarked) [Example 7, N-(1-{[3,4-dioxo-2-(3-pyridinylamino)-1-cyclobuten-1-yl]amino}-2,2-dimethylpropyl)-3-fluorobenzamide]",89%,,
2800 nM,,"CC(C)(C)C(NC(=O)c1cccc(I)c1)Nc1c(Nc2cccnc2)c(=O)c1=O (centres unmarked) [Example 8, N-(1-{[3,4-dioxo-2-(3-pyridinylamino)-1-cyclobuten-1-yl]amino}-2,2-dimethylpropyl)-3-iodobenzamide]",84%,,
2600 nM,,"CC(C)(C)C(NC(=O)c1cc(Cl)cc(Cl)c1)Nc1c(Nc2cccnc2)c(=O)c1=O (centres unmarked) [Example 12, 3,5-dichloro-N-(1-{[3,4-dioxo-2-(3-pyridinylamino)-1-cyclobuten-1-yl]amino}-2,2-dimethylpropyl)benzamide]",78%,,
370 nM,,"COc1cc(OC)cc(C(=O)NC(Nc2c(Nc3cccnc3)c(=O)c2=O)C(C)(C)C)c1 (centres unmarked) [Example 13, N-(1-{[3,4-dioxo-2-(3-pyridinylamino)-1-cyclobuten-1-yl]amino}-2,2-dimethylpropyl)-3,5-dimethoxybenzamide]",75%,,
3800 nM,,"CC(C)(C)C(NC(=O)c1cc(F)cc(F)c1)Nc1c(Nc2cccnc2)c(=O)c1=O (centres unmarked) [Example 16, N-(-1-{[3,4-dioxo-2-(3-pyridinylamino) 1-cyclobuten-1-yl]amino}-2,2-dimethylpropyl)-3,5-difluorobenzamide]",94%,,
,> 10000 nM,"CCC(CC)(CCC#N)C(NC(=O)c1ccc(Cl)cc1)Nc1c(Nc2cccnc2)c(=O)c1=O (centres unmarked) [Example 19, 4-chloro-N-(4-cyano-1-{[3,4-dioxo-2-(3-pyridinylamino)-1-cyclobuten-1-yl]amino}-2,2-diethylbutyl)benzamide]",,,
,580 nM,"C=CCOCC(CC)(COCC=C)C(NC(=O)c1ccc(Cl)cc1)Nc1c(Nc2cccnc2)c(=O)c1=O (centres unmarked) [Example 20, N-(2,2-bis[(allyloxy)methyl]-1-{[3,4-dioxo-2-(3-pyridinylamino)-1-cyclobuten-1-yl]amino}butyl)-4-chlorobenzamide]",,,
4000 nM,,"CCC(CC)C(NC(=O)c1ccc(Cl)cc1)Nc1c(Nc2cccnc2)c(=O)c1=O (centres unmarked) [Example 21, 4-chloro-N-(1-{[3,4-dioxo-2-(3-pyridinylamino)-1-cyclobuten-1-yl]amino}-2-ethylbutyl)benzamide]",68%,,
420 nM,,"O=C(NC(Nc1c(Nc2cccnc2)c(=O)c1=O)C(F)(F)C(F)(F)F)c1cccc(Cl)c1 (centres unmarked) [Example 26, 3-chloro-N-(1-{[3,4-dioxo-2-(3-pyridinylamino)-1-cyclobuten-1-yl]amino}-2,2,3,3,3-pentafluoropropyl)benzamide]",64%,,
3000 nM,,"CC(C)(C)C(NC(=O)c1ccc(Cl)cc1)Nc1c(Nc2cccnc2Cl)c(=O)c1=O (centres unmarked) [Example 29, 4-chloro-N-[1-({2-[(2-chloro-3-pyridinyl)amino]-3,4-dioxo-1-cyclobuten-1-yl}amino)-2,2-dimethylpropyl]benzamide]",81%,,
2900 nM,,"CC(C)(Cc1ccccc1)C(NC(=O)c1ccc(Cl)cc1)Nc1c(Nc2cccnc2Cl)c(=O)c1=O (centres unmarked) [Example 31, 4-chloro-N-[1-({2-[(2-chloro-3-pyridinyl)amino]-3,4-dioxo-1-cyclobuten-1-yl}amino)-2,2-dimethyl-3-phenylpropyl]benzamide]",76%,0.039,
1300 nM,,"Cc1cccc(C(=O)NC(Nc2c(Nc3cccnc3Cl)c(=O)c2=O)C(C)(C)C)c1 (centres unmarked) [Example 32, N-[1-({2-[(2-chloro-3-pyridinyl)amino]-3,4-dioxo-1-cyclobuten-1-yl}amino)-2,2-dimethylpropyl]-3-methylbenzamide]",99%,,
970 nM,,"CC(C)(C)C(NC(=O)CCc1ccccc1)Nc1c(Nc2cccnc2)c(=O)c1=O (centres unmarked) [Example 36, N-(1-{[3,4-dioxo-2-(3-pyridinylamino)-1-cyclobuten-1-yl]amino}-2,2-dimethylpropyl)-3-phenylpropanamide]",99%,,
,,"CCC(C)(C)N=C(NC#N)Nc1cccnc1 [Example P1075, reference compound]",,,completely eliminated the stimulated twitch
